{"source": "patent US11549123B2", "about": "“Plant EPSP synthases and methods of use” (PIONEER HI-BRED INTERNATIONAL, INC., priority 2015, dated 2023)", "type_in_all_cases": "biochemical", "key": {"[1]": {"molecular_target": "Oryza sativa EPSPS with 868-H6 mutations, SEQ ID NO:11 (Oryza sativa, UniProt Q93VK6, A482G/A67R/A69W/D368S/D468G/E457G/G168A/I274L/K149R/L164C/T345A/T427S/T507Q/V137Q/V504R)", "sequence (Q93VK6 64-511 with the stated changes)": "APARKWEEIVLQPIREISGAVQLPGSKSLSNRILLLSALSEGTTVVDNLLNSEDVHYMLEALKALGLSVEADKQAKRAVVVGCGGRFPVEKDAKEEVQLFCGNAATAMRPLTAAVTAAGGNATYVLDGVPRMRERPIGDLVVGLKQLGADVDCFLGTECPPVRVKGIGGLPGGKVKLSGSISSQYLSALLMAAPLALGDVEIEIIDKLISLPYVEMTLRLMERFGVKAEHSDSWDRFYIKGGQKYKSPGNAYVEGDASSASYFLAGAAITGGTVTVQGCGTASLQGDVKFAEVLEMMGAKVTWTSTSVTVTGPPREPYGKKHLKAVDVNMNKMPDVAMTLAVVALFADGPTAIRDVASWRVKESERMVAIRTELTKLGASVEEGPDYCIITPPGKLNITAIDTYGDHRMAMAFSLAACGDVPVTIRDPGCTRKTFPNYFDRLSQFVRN", "assay": "EPSPS substrate saturation kinetics, rice H6", "protocol": "EPSPS activity was determined by quantifying the phosphate generated from the EPSPS reaction. Release of inorganic phosphate was coupled to reaction with 2-amino-6-mercapto-7-methylpurine ribonucleoside, catalyzed by purine-nucleoside phosphorylase (M R Webb, Proc. Natl. Acad. Sci. 89:4884-4887, 1992). The absorbance change that occurs was monitored at 360 nm, where the extinction is 11,200 M^−1 cm^−1, with a Spectramax plate reader (Molecular Devices). To determine kinetic parameters, the varied substrate was present at seven concentrations (the eighth being the blank, containing no substrate) ranging from 4 to 400 uM and the unvaried substrate present at saturation. […] Reactions were monitored with a Spectramax plate reader. […] KI was then calculated from the following form of the Michaelis-Menten equation for competitive inhibition: KI=KM[I]/(KM app−KM) KM approximates the dissociation constant of the enzyme-substrate complex while kcat is the rate of conversion of substrate to product when the substrate concentration is saturating. kcat/KM is a widely accepted parameter for catalytic efficiency when substrate concentration is low (˜KM). […] The parameter kcat/KM×KI is used to quantify both catalytic efficiency and insensitivity and thus the overall fitness of the enzyme. […]"}, "[2]": {"molecular_target": "T1, Zea mays EPSPS variant Zm-A189T (Zea mays, UniProt O24566, A188T)", "T1 sequence (O24566 with tags, fused parts or gaps A188T)": "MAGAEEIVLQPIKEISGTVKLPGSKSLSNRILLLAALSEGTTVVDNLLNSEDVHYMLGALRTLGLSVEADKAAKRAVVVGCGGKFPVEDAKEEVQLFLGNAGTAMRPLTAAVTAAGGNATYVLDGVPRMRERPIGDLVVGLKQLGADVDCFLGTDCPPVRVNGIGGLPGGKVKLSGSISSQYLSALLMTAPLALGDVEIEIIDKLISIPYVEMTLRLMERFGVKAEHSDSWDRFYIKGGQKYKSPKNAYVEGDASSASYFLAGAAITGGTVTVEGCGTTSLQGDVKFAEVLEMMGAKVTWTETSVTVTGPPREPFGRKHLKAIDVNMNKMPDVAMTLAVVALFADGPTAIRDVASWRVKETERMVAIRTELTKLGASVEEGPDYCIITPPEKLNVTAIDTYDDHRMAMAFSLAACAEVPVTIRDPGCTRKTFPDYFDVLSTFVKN", "assay": "Rapid two-rate method for (kcat/KM)*KI, Zm-A189T", "settings": "[E] 0.07 uM, [Gly] 1000 uM", "excerpt": "(§1) There are several practical considerations for accurately estimating (kcat/KM)*KI with the rapid method. […] 2) The inhibitor concentration must be adjusted so as to obtain a degree of inhibition that minimally amplifies the error in the term v0-vi in Equation 3. If inhibition is too little, v0-vi will be small, and the error in the multiplier vi×v0/(v0-vi) will be large. […] 3) Substrate concentration should be set at the approximate KM of the parental variant(s), subject to the sensitivity of the assay. High substrate concentration obscures sensitivity to the inhibitor and reduces stringency for capturing improvements in KM. Depending on the necessity for speed, there exists opportunity for customizing enzyme and inhibitor concentrations. […] The rapid method was repeated for those and obtained data that correlated better with data obtained by substrate saturation analysis. For screening purposes however, that correlation step is not necessary. Conditions can be set so that variants with a pre-determined minimal fitness level are accurately quantified.\n(§2) In Table 15, parameters above the heavy line for the rapid method were obtained under standard conditions. For variants shown below the heavy line, the rapid analysis was repeated with enzyme or glyphosate concentrations adjusted as needed to generate sufficient signal within the limits for linear initial rates."}, "[3]": {"molecular_target": "Zea mays EPSPS variant 224R 249V (Zea mays, UniProt O24566, K223R/Y248V)", "sequence (O24566 entry or part of it K223R/Y248V)": "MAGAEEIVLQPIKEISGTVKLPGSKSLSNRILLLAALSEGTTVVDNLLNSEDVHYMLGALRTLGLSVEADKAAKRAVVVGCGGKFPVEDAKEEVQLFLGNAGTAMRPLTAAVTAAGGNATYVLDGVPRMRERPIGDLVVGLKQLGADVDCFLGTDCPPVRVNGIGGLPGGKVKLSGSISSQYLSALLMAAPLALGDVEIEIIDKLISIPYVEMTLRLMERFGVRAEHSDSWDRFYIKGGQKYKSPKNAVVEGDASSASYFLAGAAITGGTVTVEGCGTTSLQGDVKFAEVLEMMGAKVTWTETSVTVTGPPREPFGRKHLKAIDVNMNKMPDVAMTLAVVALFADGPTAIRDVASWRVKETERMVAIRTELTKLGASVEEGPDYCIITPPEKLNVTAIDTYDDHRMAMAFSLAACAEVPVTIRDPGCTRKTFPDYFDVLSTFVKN", "assay": "EPSPS reaction rate with or without 10 uM glyphosate, 224R 249V", "settings": "pH 7; read-out: Reaction rate with 10 μM glyph, % no glyph"}, "[4]": {"molecular_target": "T2, Zea mays EPSPS variant Zm-P107S (Zea mays, UniProt O24566, P106S)", "T2 construct": "native maize plus P107S; E. coli BL21(DE3), Ni-NTA purified", "T2 sequence (O24566 with tags, fused parts or gaps P106S)": "T1 sequence (O24566 with tags, fused parts or gaps A188T) with P107S, T189A", "assay": "Rapid two-rate method for (kcat/KM)*KI, Zm-P107S", "excerpt": "as §1, §2"}}, "note": "Where a chain is given by its changes, count along the chain named. Throughout, for Reaction rate with 10 μM glyph, % no glyph: 50 µM PEP and S3P."}
{"smiles": "O=C(O)CNCP(=O)(O)O", "note": "[glyphosate, N-phosphonomethylglycine]", "values": [{"measurement": "Ki", "setting": "[1]", "result": 907, "unit": "µM"}, {"measurement": "(kcat/KM)*KI", "setting": "[1]; PEP as substrate, glyphosate as inhibitor", "result": 9200}, {"measurement": "(kcat/KM)*KI", "setting": "[2]", "result": 431}, {"measurement": "activity at 10 µM", "setting": "[3]", "result": 3.09, "unit": "%"}, {"measurement": "(kcat/KM)*KI", "setting": "[4]; rapid method repeated, [E] 0.007 uM, [Gly] 5 uM", "result": 40}, {"measurement": "(kcat/KM)*KI", "setting": "[4]; rapid method, [E] 0.07 uM, [Gly] 1000 uM", "result": 72}]}
